The source of these data is PMC8805583, “Discovery of Herbacetin as a Novel SGK1 Inhibitor to Alleviate Myocardial Hypertrophy” (Advanced Science, 2021).

What all share (assay): KinaseProfiler Assay, AGC kinase panel
Assay type in all cases: biochemical

One assay addresses T1, SGK1 (Homo sapiens, UniProt O00141).
T1 sequence (O00141 1-431): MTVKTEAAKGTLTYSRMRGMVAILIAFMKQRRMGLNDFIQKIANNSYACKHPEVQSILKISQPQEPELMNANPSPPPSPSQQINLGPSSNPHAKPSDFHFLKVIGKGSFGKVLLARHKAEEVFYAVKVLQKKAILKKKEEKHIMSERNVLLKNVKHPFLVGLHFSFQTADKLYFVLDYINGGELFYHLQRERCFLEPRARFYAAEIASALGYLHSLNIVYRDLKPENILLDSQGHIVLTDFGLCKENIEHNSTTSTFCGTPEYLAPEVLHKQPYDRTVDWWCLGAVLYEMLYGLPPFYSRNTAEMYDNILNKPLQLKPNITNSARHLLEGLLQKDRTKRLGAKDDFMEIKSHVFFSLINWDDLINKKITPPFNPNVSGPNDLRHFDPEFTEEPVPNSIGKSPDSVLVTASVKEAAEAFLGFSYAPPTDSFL
On the set-up: purchased Eurofins Discovery (KinaseProfiler Service). The conditions noted are these: HBT 10 µmol; normalized by positive inhibitors. From the text: (§1) 20 structurally related flavonoids of HBT were collected, which differ in the number and position of —OH groups, and examined for their effects on SGK1 activity. Based on the docking prediction, the —OH group at the C‐4’ position of HBT was required for the interaction with the key SGK1 residue D177. Therefore, the 20 flavonoids were divided into two classes according to the presence or absence of an —OH group at C‐4’ (Figure 4B). At both tested concentrations, flavonoids with an —OH group at C‐4’ (class A) inhibited SGK1 more than those without an —OH group at C‐4’ (class B) (Figure 4C). The IC50 of each compound is listed in Figure 4D; and Figure S6 (Supporting Information). […] Conversely, the absence of an ‐OH group at C‐8 led to a greater than 10‐fold reduction in flavonoid SGK1 inhibitory activity, as shown by the performance of A1 or A4. […] The inhibitory activity of HBT (10 µmol) against 28 human AGC kinases was tested by KinaseProfiler Assay (Eurofins Discovery). The percentage of HBT's inhibitory activity against each kinase was normalized by the respective positive inhibitors of AGC kinases.
The initial crystal structures of SGK1 (PDB entry: 3HDN, 3HDM, and 2R5T) were obtained from the Protein Data Bank (PDB). The prepared inhibitors were then docked by Glide with the extra precision (XP) scoring mode to estimate the binding affinity for each protein–ligand complex. […]

In assay [1] the target is T2, cGMP-dependent type II protein kinase (PRKG2) (Homo sapiens, UniProt Q13237).
T2 construct: purchased Eurofins Discovery (KinaseProfiler Service)
T2 sequence (Q13237 1-762): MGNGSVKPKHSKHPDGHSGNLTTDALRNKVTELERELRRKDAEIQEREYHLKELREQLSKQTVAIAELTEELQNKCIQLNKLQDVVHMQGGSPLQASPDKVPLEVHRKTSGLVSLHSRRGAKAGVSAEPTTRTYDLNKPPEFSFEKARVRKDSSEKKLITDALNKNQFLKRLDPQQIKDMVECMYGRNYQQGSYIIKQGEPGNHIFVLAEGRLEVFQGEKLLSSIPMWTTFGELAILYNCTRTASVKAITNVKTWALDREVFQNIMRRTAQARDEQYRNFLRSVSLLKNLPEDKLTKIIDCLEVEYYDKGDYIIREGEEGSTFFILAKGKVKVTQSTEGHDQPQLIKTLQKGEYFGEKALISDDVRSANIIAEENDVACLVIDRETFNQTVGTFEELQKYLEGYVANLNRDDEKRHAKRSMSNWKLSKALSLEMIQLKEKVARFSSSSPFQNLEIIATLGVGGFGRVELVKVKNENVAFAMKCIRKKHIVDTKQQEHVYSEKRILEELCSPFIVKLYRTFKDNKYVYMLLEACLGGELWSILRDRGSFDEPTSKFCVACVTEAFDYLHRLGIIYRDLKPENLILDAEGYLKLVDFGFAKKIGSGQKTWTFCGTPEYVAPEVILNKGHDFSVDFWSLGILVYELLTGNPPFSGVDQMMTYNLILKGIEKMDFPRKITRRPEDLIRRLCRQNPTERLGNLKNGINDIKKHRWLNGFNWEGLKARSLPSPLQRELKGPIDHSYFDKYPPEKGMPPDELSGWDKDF
The conditions noted are these: HBT 10 µmol; normalized by positive inhibitors.
Excerpt: as §1
(§2) The initial crystal structures of SGK1 (PDB entry: 3HDN, 3HDM, and 2R5T) were obtained from the Protein Data Bank (PDB). The prepared inhibitors were then docked by Glide with the extra precision (XP) scoring mode to estimate the binding affinity for each protein–ligand complex. The detailed process of docking has been described previously.^[ [46] ^] HEK293T cells were transfected with SGK1 mutant plasmids. After 24 h, cells were lysed and immunoprecipitated with anti‐FLAG antibody and beads. Immune complexes were washed with kinase buffer and incubated in kinase buffer with substrate peptide for 1 h at 30 ℃ followed by LC/MS measurement as described above. KINOMEscan Profiling Service and KinaseProfiler Service Assay were provided by Eurofins Discovery.

Assay [2] concerns the target T3, Rho-associated protein kinas-1 (ROCK-I) (Homo sapiens, UniProt Q13464).
T3 construct: purchased Eurofins Discovery (KinaseProfiler Service)
The conditions noted are these: HBT 10 µmol.
Excerpt: as §1, §2

Another assay concerns the target T4, SGK2 (Homo sapiens, UniProt Q9HBY8).
T4 construct: purchased Eurofins Discovery (KinaseProfiler Service)
T4 sequence (Q9HBY8 1-367): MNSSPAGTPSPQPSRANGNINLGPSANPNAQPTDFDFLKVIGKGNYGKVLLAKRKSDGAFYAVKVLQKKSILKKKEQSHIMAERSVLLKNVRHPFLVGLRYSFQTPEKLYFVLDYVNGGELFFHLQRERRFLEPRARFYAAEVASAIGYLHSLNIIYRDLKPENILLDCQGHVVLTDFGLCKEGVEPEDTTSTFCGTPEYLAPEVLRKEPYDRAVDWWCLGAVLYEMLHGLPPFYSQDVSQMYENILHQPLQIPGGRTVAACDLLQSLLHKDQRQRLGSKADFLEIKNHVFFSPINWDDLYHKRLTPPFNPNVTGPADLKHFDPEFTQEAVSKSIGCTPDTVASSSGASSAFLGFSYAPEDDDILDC
The conditions noted are these: HBT 10 µmol; normalized by positive inhibitors.
Excerpt: as §1, §2

T3 sequence (Q13464 whole entry): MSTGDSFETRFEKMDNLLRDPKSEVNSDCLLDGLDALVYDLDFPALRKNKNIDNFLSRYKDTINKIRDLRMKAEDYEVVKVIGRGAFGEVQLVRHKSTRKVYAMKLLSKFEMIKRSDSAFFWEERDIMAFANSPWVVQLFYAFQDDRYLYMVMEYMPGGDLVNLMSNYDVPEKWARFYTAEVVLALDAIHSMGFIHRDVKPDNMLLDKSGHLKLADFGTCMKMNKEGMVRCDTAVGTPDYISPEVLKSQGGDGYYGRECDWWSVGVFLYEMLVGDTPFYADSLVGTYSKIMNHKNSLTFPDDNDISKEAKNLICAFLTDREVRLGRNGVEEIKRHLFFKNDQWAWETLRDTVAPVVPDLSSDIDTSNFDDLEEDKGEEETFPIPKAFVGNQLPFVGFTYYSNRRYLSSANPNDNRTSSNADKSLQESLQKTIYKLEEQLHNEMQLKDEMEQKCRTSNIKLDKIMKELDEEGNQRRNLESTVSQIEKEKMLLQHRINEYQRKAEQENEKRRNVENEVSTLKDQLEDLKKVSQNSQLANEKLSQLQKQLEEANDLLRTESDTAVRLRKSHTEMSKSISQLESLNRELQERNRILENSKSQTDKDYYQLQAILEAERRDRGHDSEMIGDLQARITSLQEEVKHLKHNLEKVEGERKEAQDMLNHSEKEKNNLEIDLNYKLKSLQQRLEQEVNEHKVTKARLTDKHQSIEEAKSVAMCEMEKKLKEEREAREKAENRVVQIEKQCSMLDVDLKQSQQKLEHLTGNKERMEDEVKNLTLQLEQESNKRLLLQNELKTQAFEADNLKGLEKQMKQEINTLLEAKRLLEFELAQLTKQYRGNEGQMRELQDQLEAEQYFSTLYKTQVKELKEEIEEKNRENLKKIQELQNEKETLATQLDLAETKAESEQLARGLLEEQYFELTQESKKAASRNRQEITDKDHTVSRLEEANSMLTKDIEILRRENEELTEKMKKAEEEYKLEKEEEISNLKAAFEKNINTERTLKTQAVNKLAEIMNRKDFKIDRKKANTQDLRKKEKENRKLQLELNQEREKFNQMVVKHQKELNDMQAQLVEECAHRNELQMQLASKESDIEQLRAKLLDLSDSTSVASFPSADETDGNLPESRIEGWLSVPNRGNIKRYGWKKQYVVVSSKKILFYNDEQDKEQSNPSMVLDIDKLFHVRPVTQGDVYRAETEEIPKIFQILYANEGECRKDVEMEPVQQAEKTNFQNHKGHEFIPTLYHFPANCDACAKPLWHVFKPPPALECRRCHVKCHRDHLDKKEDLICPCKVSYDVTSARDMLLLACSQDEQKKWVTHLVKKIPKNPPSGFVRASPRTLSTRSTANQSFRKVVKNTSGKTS

For `O=c1c(O)c(-c2ccc(O)cc2)oc2c(O)c(O)cc(O)c12` [HBT, herbacetin], the “inhibitory activity on SGK1” value against SGK1 was found to be 95%. For the same compound, the “inhibitory activity on PRKG2” value in assay [1] was determined as 45%. The “inhibitory effect on ROCK-I” value in assay [2] is reported as “high inhibitory effects”. Also, at SGK2, the “inhibitory activity on SGK2” value came to 105%.
